Results reported in article PMC4492727 (Pharmacology Research & Perspectives, 2015).
Values after ≈ are worked out from the molar mass of the structure shown. Read-outs that look alike come from different tables or passages of the source.

Experiments:
MDCK II (MDR1) cells [1] = format: in vitro ADME, canine (cells expressing human P-gp); conditions: 2.4 μmol/L telmisartan
[2] = tested on: MDCK II cells transfected with the human MDR1 gene; conditions: 5 μmol/L telmisartan, 30 min preincubation; ref Chang et al. ([2006]); cited from earlier work
[3] = tested on: P-gp activity of the murine cell line P388/dx; conditions: P388/dx cells; ref Weiss et al. [2010]; cited from earlier work
MDCK II (MDR1) cells [4] = assay: Bidirectional transepithelial transport across MDCK II
[5] = cited from earlier work
P-gp = conditions: read-out: IC50 as inhibitor of P-gp; ref Weiss et al. [2010]; cited from earlier work

## CCCc1nc2c(C)cc(-c3nc4ccccc4n3C)cc2n1Cc1ccc(-c2ccccc2C(=O)O)cc1 [telmisartan]
MDCK II (MDR1) cells [1]
  effect on amount of [3H]-digoxin present in cells and filter: no difference
  increase in concentration of verapamil in cells compared to untreated control: ~26%
[2]
  inhibition of the efflux transport of digoxin: able to inhibit
[3]
  P-gp inhibitory effect, calcein AM uptake: inhibited
MDCK II (MDR1) cells [4]; 2.4 μmol/L telmisartan
  effect on transepithelial efflux of [3H]-verapamil: minor inhibition
  effect on transepithelial transport of [3H]-digoxin: does not affect
MDCK II (MDR1) cells [4]; low concentrations of telmisartan, data not shown
  effect on verapamil transport in pilot experiments: no effects
[5]; ref Park et al. [2013]
  aqueous solubility: 0.45 µM (≈ 0.232 µg/mL)
[5]; ref Tran et al. [2008]
  aqueous solubility: 0.17 µM (≈ 0.0875 µg/mL)
P-gp
  IC50: 380 nM
